From patent publication US20200216906A1, “METHODS AND COMPOSITIONS RELATING TO THE DIAGNOSIS AND TREATMENT OF CANCER” (PRESIDENT AND FELLOWS OF HARVARD COLLEGE, priority 2015, published 2020)
Where a name gives a salt, the structure may show the parent alone. Read-outs that look alike come from different tables or passages of the source.

Columns and labels:
[1] = system: Panc02.13 cells expressing vector only (02.13-WT); test: Kinetic cell growth assay, Panc02.13 cells expressing vector only; format: cell-based, human; conditions: Homo sapiens
Method: Panc02.13 cells were used to express YAPS6A (or vector controls) under sparse and dense cultures. Expression was confirmed by confocal microscopy (data not shown). Suppression of the Hippo pathway by expression of non-phospho, active form of YAP (YAPS6A) sensitized pancreatic cancer cells to gemcitabine and 5-FU (FIGS. 6 and 7). Apoptosis was measured by immunobloting with cleaved caspases 3/7 or PARP. Blots were also stained with anti-β-actin for loading control. The effect of Hippo pathway suppression on gemcitabine and 5-FU senstitization was maintained in 3D spheroid culture (FIG. 8). The effects of eleven cytotoxic drugs on the growth of Panc02.13 cells expressing vector only or YAPS6A construct grown under low or high densities were determined (Table 1).
(§1) The effect of gemcitabine on pancreatic cancer cell growth was studied using a kinetic cell growth assay. Pancreatic cancer cells were plated on 96-well plates (Essen ImageLock, Essen Instruments, MI, US) at varying densities (2-4×10^3 for low density or 15-20×10^3 for high density experiments). Small molecule inhibitors at different doses were added 24 hours after plating and cell confluence was monitored with Incucyte Live-Cell Imaging System and software (Essen Instruments). Confluence was observed every hour for 48-144h or until the control (DMSO only) samples reached 100% confluence.
as §1, with “Kinetic Cell growth assay. The” for “The”, “(2-4X103” for “(2-4×10^3”, “15-20X103” for “15-20×10^3”, “Incucyte™” for “Incucyte”

[2] = system: pancreatic cancer cell lines; test: Kinetic cell growth assay, panel of pancreatic cancer cell lines; format: cell-based, human; conditions: for IC50: PDAC cell lines
Method in brief: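 Pancreatic cancer cells seeded at 2-4×10^3 (low) or 15-20×10^3 (high density) per well; compounds added at several doses 24 h after plating. Confluence imaged live (Incucyte) hourly for 48-144 h or until DMSO controls reached 100% confluence.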

[3] = system: cancer cell lines harboring Hippo pathway genetic alterations; test: 3D spheroid growth assay, cell lines with Hippo pathway alterations; format: cell-based; conditions: cell lines from five diverse cancer types
Description: Genetic defects that inhibit the Hippo pathway can induce tumors in model organisms. Such mutations occur in a broad range of human carcinomas, including lung, mesothelioma, colorectal, ovarian and liver cancers (Harvey et al., 2013) (Table S3). Mutations in NF2 and LATS2 are found in ˜30% of mesotheliomas and mutations in STK11 are found in 18% of lung cancers (Table S3). Previous studies have shown that aberrations in LATS2 and NF2 inactivate the Hippo pathway and overcome crowding-mediated YAP inhibition (Murakami et al., 2011). Despite the oncogenic effect of Hippo pathway mutations, the above studies would predict that the same inactivating mutations in the Hippo pathway genes (NF2, LATS2, STK11) could have an important effect, which can be exploited in chemotherapy: they might be hypersensitive to gemcitabine even in highly crowded conditions and increase the effectiveness of treatment. […] Furthermore, previous studies have shown that mutations in STK11 (LKB1) in lung cancer cell lines confer sensitivity to gemcitabine while ectopic expression of STK11 causes resistance (Xia et al., 2014; Yang, 2014). STK11 has been identified as an upstream kinase that negatively regulates YAP activity (Mohseni et al., 2014). […] Genetic aberrations in the Hippo pathway can be predictive biomarkers for response to gemcitabine.

[4] = system: Panc02.13-parental xenografts; test: Mouse xenograft, Panc02.13-parental; format: in vivo; conditions: alternate days for two weeks
Method: To assess the gemcitabine response to Hippo pathway inactivation in tumors a mouse xenograft model of pancreatic carcinoma cells and patient-derived xenograft (PDX) models from a variety of solid tumors including human cancers from non-small cell lung, esophagus, breast, mesothelium, ovary, colon, head and neck, sarcoma, and cholangiocarcinoma were used (FIG. 30). In mouse xenograft studies, two human pancreatic cancer cell lines (Miapac2 and Panc02.13) expressing GFP or YAPS6A were injected into athymic mice. Both parental or GFP expressing cells grew rapidly, producing palpable tumors in 5-10 days. When the tumors were ˜200 mm^3 (as measured using a caliper), mice were randomized into treatment and control groups. The […] received i.p. saline injections on alternate days for two weeks, and the latter received gemcitabine (20 mg/kg in Miapaca2-YAPS6A and 50 mg/Kg in Panc02.13-YAPS6A cohorts).
Tumorigenicity in Nude Mice. All in vivo experiments were performed using 6-week-old to 8-week-old athymic nude mice. Mice were maintained in laminar flow rooms with constant temperature and humidity. Miapaca2 or Panc02.13 cells were inoculated subcutaneously (s.c.) into each flank of the mice. […] Tumor volumes (V) were calculated using the formula: V=AB2/2 (A, axial diameter; B, rotational diameter). […]

`Nc1ccn([C@@H]2O[C@H](CO)[C@@H](O)C2(F)F)c(=O)n1` [Gemcitabine, Gemcitabine hydrochloride] was tested, and the EC50 ([1]; high density, read-out: High density (EC50, nM) 02.13-WT) was 1100 nM, the EC50 ([1]; low density, read-out: Low density (EC50, nM) 02.13-WT) was 1.6 nM and the IC50 ([2]; Homo sapiens, Pancreatic cancer cell, dense culture, read-out: IC50, resistant in dense culture) was > 1000 nM. For the same molecule, the IC50 ([2]; Homo sapiens, Pancreatic cancer cell, sparse culture, read-out: IC50, sensitive in sparse culture) was < 100 nM, the EC50 ([2]; Homo sapiens, Pancreatic cancer cell, low crowding conditions (10-25% confluence), all cell lines tested, read-out: EC50 on cell growth) was < 200 nM and the “Dependence of cellular response on cell crowding” value ([2]; seven PDAC cell lines, threshold >100 fold difference in EC50) was “dependent on cell crowding”. For the same molecule, the “Density dependence of efficacy” value ([2]; seven pancreatic cancer cell lines, sparse and dense conditions) was “density-dependent”, the EC50 [3] was < 1000 nM and the Growth of xenografts [4] was “no affect”.
